Measurements published in US20110046120A1, “TREATMENT OF IMPULSE CONTROL DISORDERS” (Mclean Hospital Corporation, priority 2006, published 2011).

Assays:
α2 adrenoceptor = details: cited from earlier work; for effect on yohimbine's effects: α2 agonists, Ghitza et al, 2005, Le et al, Lee et al, 2004
reward circuitry [1] = assay: cardiac gated fMRI BOLD imaging during cocaine infusion; assay type: in vivo, human; details: cocaine HCl 0.6 mg/kg infusion (max 40 mg), vs pre-infusion baseline, count out of 7 cocaine-dependent subjects
Description: We imaged reward circuitry in humans during cocaine infusion, using cardiac gated fMRI BOLD imaging to compensate for brainstem motion. We further used a clustered volume acquisition with sharpened slice profiles to cluster the acquisition of the brainstem volume and thus reduce the effects of imaging noise on cocaine-induced euphoria and craving. Eleven right-handed men (34±7 years old) with the DSM-IV diagnosis of cocaine dependence were studied. During imaging, subjects underwent a randomized double-blind infusion of either cocaine HCl (0.6 mg/kg up to maximum dose of 40 mg) or saline. Subjects were scanned on an Instascan device (1.5 T General Electric Signa; modified by Advanced NMR Systems, Wilmington, Mass.) using a head coil (General Electric). […] Automated shimming with second order shims was performed to improve Bo field homogeneity. Functional scans utilized cardiac gating with an asymmetric spin echo, T2*-weighted CVA (TR=6 RR, three slices per each of the first two RRs; TE=70; offset=−25 ms; 128×64 matrix; thickness=3.12×3.12 mm, through-plane resolution=7 mm; 200 images/slice). […] Seven matched sets of cocaine and saline infusion scans were interpretable after motion-correction. Statistical maps were constructed using Kolmogorov-Smirnov (KS) statistics and thresholded at the corrected p value for brain regions sampled, p<10-5. […]

[2] = tested on: cocaine-dependent individuals; assay: self-rated subjective responses after intravenous cortisol, cocaine and saline in cocaine dependence; assay type: in vivo, human
Protocol: To assess cocaine/stress cross-sensitization, 12 cocaine-dependent individuals (age: 39.8±3.5 years) were administered cortisol (0.2 and 0.5 mg/kg), along with cocaine (0.2 mg/kg) and saline via intravenous boluses, in a double-blind, counterbalanced fashion. The individualized description of subjective responses were categorized into four components: craving, high, rush, and low, which were self-rated on a computerized continuous scale of 0 (none) to 3 (extreme) each minute for two minutes prior and 20 minutes following each infusion. Cocaine craving was proactively defined with the subject, clinically as an urge to use the drug and operationally in terms of the action the individual wanted to engage in to get cocaine. The ratings for high (well-being, self-confidence, and sociability), rush (perception of elevated heart rate and sweating, along with sensations of ‘speeding’), and low (dysphoric affect distinct from the high experience diminishment) were subjectively defined and not necessarily associated with a behavioral response or with the planning of physical activity. […] Cocaine elevated measures of craving (p<0.001); high (p<0.02); rush (p<10-4); and low (p=0.05). Saline produced no significant ratings changes.

reward circuitry [3] = assay: fMRI with cardiac gating during low-dose morphine infusions
Protocol: Normal human reward circuitry was studied during low-dose morphine infusions using fMRI with cardiac gating in an unblinded study. […] Morphine and saline infusions were counter-balanced across subjects, and segregated in separate scan sessions 7 days apart. Four 2 mL infusions were given over 8 minutes, with each infusion lasting 20 seconds. The onset of each infusion was separated by a 2-minute interval. The total morphine dose divided evenly over the 4 infusions was 4 mg/70 kg. Respiratory rate, heart rate, O2 saturation, and end-tidal carbon dioxide concentration in the expired air (ETCO2) were monitored during the experiment in each individual for safety. Subjects were asked to rate their subjective high on a 10-point hedonic rating scale (0=no high; 10=max. high imaginable).

[4] = Guthrie et al, 1990; cited from earlier work
[5] = tested on: NAc and other stress-associated regions; assay: monetary reward task with fMRI in PG subjects given yohimbine; assay type: in vivo, human; details: vs PG subjects given saline and normal controls
Protocol: During the gambling paradigm, subjects participated in a game of chance where they actually won or lost money while in the fMRI scanner. Signal changes that anticipate or accompany monetary gains and losses under varying conditions of controlled expectation were evaluated. Specifically, evaluated were: a) an “expectancy phase”, when a promising or unpromising roulette-like spinner (FIG. 4) is presented and b) an “outcome phase” when the arrow lands on one sector of that spinner, and thereby alters the subjects' winnings. It is known that, when applied to healthy controls, this task differentiates the fMRI time courses in the NAc, mPFC and SLEA and in related regions during expectancy vs. outcome phases.
At the start of the game, each subject was given an endowment of $50 and was told that (s)he might lose some or all of this stake, retain it or increase it. Each trial consisted of a “prospect phase”, when a spinner was presented and an “outcome phase” when a sector of the spinner was selected by the arrow and a corresponding amount was added to or subtracted from the subjects' winnings. […] The display was static for the first 0.5 second and then a superimposed arrow began to rotate. […] Only results of the last 18 trials were scored for each run since the initial trial was inserted into the run sequence purely to maintain counterbalancing. […]

[6] = tested on: healthy subjects and neuropsychiatric patients; details: cited from earlier work
[7] = morphine 4 mg/70 kg total, 5 subjects

Q: With `CCS(=O)(=O)N1CCC[C@@H]2CN3CCc4cc(OC)ccc4[C@@H]3C[C@@H]21.Cl` [RS-79948-197] as the compound, how does the “reproduction of yohimbine's effects” value (α2 adrenoceptor; selective α2 adrenoceptor antagonist, literature) read?
A: The value was “replication of these effects”.

Q: With `Clc1cccc(Cl)c1N=C1NCCN1` [clonidine] as the compound, how does the “effect on yohimbine's effects” value (α2 adrenoceptor) read?
A: Its value is “blockade of yohimbine's effects”.

Q: Which “subjects with focal positive fMRI signal changes in the right NAc, amygdala, and mPFC” value (reward circuitry [1]) does the source give for `COC(=O)[C@H]1[C@@H](OC(=O)c2ccccc2)C[C@@H]2CC[C@H]1N2C` [cocaine] here?
A: Its value is at least 5.

Q: Which results are given for `C[C@]12CCC(=O)C=C1CC[C@@H]1[C@@H]2[C@@H](O)C[C@@]2(C)[C@H]1CC[C@]2(O)C(=O)CO` [cortisol]?
A: craving self-rating, time effect ([2]; cortisol 0.2 and 0.5 mg/kg iv bolus, F=3.11, p<0.001): significant increases in craving; craving self-rating, dose effect ([2]; cortisol 0.2 vs 0.5 mg/kg iv, F=0.06, p=0.81): no dose effect

Q: With `CC(Oc1c(Cl)cccc1Cl)C1=NCCN1` (stereo not shown) [lofexidine] as the compound, how does the “effect on yohimbine's effects” value (α2 adrenoceptor) read?
A: Its value is “blockade of yohimbine's effects”.

Q: For `CN1CC[C@]23c4c5ccc(O)c4O[C@H]2[C@@H](O)C=C[C@H]3[C@H]1C5` [morphine], which adverse side-effects (reward circuitry [3]; morphine 4 mg/70 kg total over 4 infusions, drug naive male subjects) is on record?
A: Its adverse side-effects is “No adverse side-effects”.

Q: What about the “fMRI activation in bilateral NAc and mPFC” value (reward circuitry [3]; [7]) of the same compound?
A: Its value is “significant focal activations”.

Q: What about the “fMRI activation in the amygdala” value (reward circuitry [3]; [7]) of the same compound?
A: The value was “subthreshold activation”.

Q: What about the “subjective state (hedonic rating)” value (reward circuitry [3]; morphine 4 mg/70 kg total, data not shown) of the same compound?
A: The value was “mild euphoria”.

Q: And the “fMRI activation in the VT” value (reward circuitry [3]; morphine 4 mg/70 kg total, with cardiac gating)?
A: Its value is “left VT activation”.

Q: Which half-life [4] does the source give for `COC(=O)[C@@H]1[C@H]2C[C@H]3c4[nH]c5ccccc5c4CCN3C[C@@H]2CC[C@@H]1O` [yohimbine] here?
A: Its half-life is “about 45 minutes”.

Q: And the “brain activity in the NAc and other stress-associated regions” value [5]?
A: Its value is “significantly elevated levels of brain activity”.

Q: What about the tolerability ([6]; yohimbine 0.125 mg/kg to 0.4 mg/kg intravenous) of the same compound?
A: Its tolerability is “generally well tolerated”.

Q: What about the “reported adverse effects in clinical trials” value ([6]; yohimbine clinical trials) of the same compound?
A: The value was “elevated blood pressure and heart rate, psychomotor agitation, irritability, tremor, headaches, skin flushing, dizziness, urinary frequency, nausea, vomiting and perspiration”.

Q: What about the “PET brain activity in PTSD subjects” value ([6]; yohimbine infusions 0.4 mg/kg, ten PTSD subjects vs matched healthy controls, associated with increased anxiety self-reports) of the same compound?
A: Its value is “deactivations in prefrontal, temporal, parietal, and orbitofrontal cortexes”.
